# Reference: patent publication US12173088B2, “Anti-microbial peptides” (priority 2018, dated 2024)
# Peptide text beside a SMILES is read from it.
# Assays:
# [1] = tested on: P. aeruginosa PAO1; assay type: cell-based, Pseudomonas aeruginosa
# Protocol: (§1) The antibacterial activity of peptides was evaluated using a standard broth microdilution protocol with minor modifications as described (Mishra, et al. (2012) J. Am. Chem. Soc., 134:12426-12429). In brief, logarithmic phase bacterial cultures (i.e., optical density at 600 nm≈0.5) were diluted to OD600 0.001 and partitioned into a 96-well polystyrene microplate at 90 μL per well. After treatment with 10 μL of peptide solutions two fold diluted to various concentrations, microplates were incubated at 37° C. overnight and read on a ChroMate® 4300 Microplate Reader at 630 nm (GMI, Ramsey, MN). […] To study the influence of medium conditions on the antimicrobial activity of peptides against S. aureus USA300, up to 200 mM sodium chloride (NaCl), 2 mM of calcium chloride, 5-10% of human serum, mouse plasma, fluid, or supernatants of tissue homogenates were included into the assays.
# (§2) The bacterial strains used include the Gram-positive bacteria methicillin-resistant Staphylococcus aureus USA300, Enterococcus faecium V286-17 (VRE), S. aureus M838-17 (MRSA) and Gram-negative bacteria E. coli E423-17, E416-7 (ampC), P. aeruginosa E411-17, PA01, K. pneumoniae E406-17, ATCC13883, and A. baumannii B26-16. Bacteria were cultivated in tryptic soy broth (TSB) from BD Bioscience.
# (§3) The antibacterial activity of peptides was evaluated using a standard broth microdilution protocol with minor modifications (Mishra, et al. (2017) Acta Biomater., 49:316-328). In brief, logarithmic phase bacterial cultures (i.e., optical density at 600 nm≈0.5) were diluted to 0.001 OD and aliquoted 90 μL per well into a 96-well polystyrene microplate. Added 10 μL peptides per well with various concentrations, plates were incubated at 37° C., overnight. Post incubation the plates are read at 630 nm using a ChroMate® Microplate Reader (GMI). […] To study the influence of medium conditions on the antimicrobial activity of peptides against S. aureus USA300 at different pHs (6.8, 7.2, and 8.0), 150 mM sodium chloride (NaCl), 5-10% of human serum, mouse plasma, and peritoneal fluid were included into the assays.
# [2] = tested on: K. pneumoniae ATCC 13883; assay type: cell-based, Klebsiella pneumoniae; details: ATCC 13883
# Protocol: as §1, §2, §3
# [3] = tested on: E. coli ATCC 25922; assay type: cell-based, Escherichia coli; details: ATCC 25922
# Protocol: as §1, §3
# [4] = tested on: human red blood cells (hRBCs); assay: Hemolytic assay; assay type: cell-based
# Protocol: Briefly, human red blood cells (hRBCs) were washed three times with phosphate buffer saline (PBS) and diluted to a 2% solution (v/v). After peptide treatment, incubation at 37° C. for one hour, and centrifugation at 5000 rpm for 10 minutes, aliquots of the supernatant were carefully transferred to a fresh 96-well microplate. The amount of hemoglobin released was measured at 545 nm. The percent lysis was calculated by assuming 100% release when human blood cells were treated with 2% Triton™ X-100, and 0% release when incubated with PBS buffer. The peptide concentration that caused 50% lysis of hRBCs is defined as HL50. The cell selectivity index (CSI) was calculated as the ratio between HL50 and MIC of the corresponding peptide against a select pathogenic species.
# Hemolytic assays of peptides were performed as described (Mishra, et al. (2017) Acta Biomater., 49:316-328). Briefly, human red blood cells (hRBCs) obtained from UNMC Blood Bank. The blood washed 3× with isotonic saline (0.9% NaCl) and diluted to 2% blood cells (v/v). Peptide horine and verine at various concentrations were added into the 2% blood cells and incubated at 37° C. for 1 hour. Post incubation the plates were spun at 2000 rpm for 10 minutes, aliquots of the supernatant were carefully transferred to a fresh 96-well microplate. The amount of cells lysed is proportional to the hemoglobin released and measured at 545 nm using a ChroMate® microplate reader. The percent lysis was calculated by assuming 100% release when human blood cells were treated with 1% Triton™ X-100, and 0% release when incubated with PBS. The peptide concentration that caused 50% lysis of hRBCs is defined as HL50.
# [5] = tested on: S. aureus USA300; assay: microbe, parasite or virus in culture; assay type: cell-based, Staphylococcus aureus; details: for MIC S. aureus USA 300 / MIC against S. aureus: USA300
# Text: The bacterial strains used include the Gram-positive strains Staphylococcus aureus USA300 LAC, S. epidermidis 1457, and Bacillus subtilis 168, as well as the Gram-negative isolates Escherichia coli K12 and Acinetobacter baumannii B2367-12. Additional, drug resistance strains include Gram-positive Enterococcus faecium V286-17 (VRE) and S. aureus M838-17 (MRSA) and Gram-negative E. coli E423-17, E. coli E416-17 (ampC), and P. aeruginosa E411-17. Bacteria were cultivated in tryptic soy broth (TSB) (BD Bioscience, MD).
# as §1, §2, §3
SMILES,Activity against Pseudomonas aeruginosa PAO1 [1],MIC P. aeruginosa PAO1 [1] [µM],MIC K. pneumoniae [2] [µM],MIC E. coli ATCC 25922 [3] [µM],HL50 [4] [µM],MIC S. aureus USA 300 [5] [µM],Antimicrobial activity ([5]; at 25 μM),MIC against S. aureus [5] [µM],MIC K. pneumonia ATCC 13883 [2] [µM]
"CC(C)C[C@H](NC(=O)[C@H](CC(C)C)NC(=O)[C@H](CCCCN)NC(=O)CNC(=O)[C@H](C)NC(=O)[C@H](CC(C)C)NC(=O)[C@H](CO)NC(=O)[C@H](CC(C)C)NC(=O)[C@H](CC(C)C)NC(=O)[C@H](CO)NC(=O)[C@H](CC(C)C)NC(=O)[C@H](CC(C)C)NC(=O)CN)C(N)=O [DFT511, GLLSLLSLAGKLL] (H-GLLSLLSLAGKLL-NH2; N-terminus assumed)",active,12.5,3.1,3.1,14,0.78,–,–,–
"CC(C)C[C@H](NC(=O)[C@H](C)NC(=O)[C@H](CCCCN)NC(=O)CNC(=O)[C@H](CC(C)C)NC(=O)[C@H](C)NC(=O)[C@H](CCCCN)NC(=O)[C@H](CC(C)C)NC(=O)[C@H](C)NC(=O)[C@H](CO)NC(=O)[C@H](CC(C)C)NC(=O)[C@H](C)NC(=O)CN)C(N)=O [DFT530, GALSALKALGKAL] (H-GALSALKALGKAL-NH2; N-terminus assumed)",–,>25,>25,>25,>100,>25,inactive,–,–
"CC(C)C[C@H](NC(=O)[C@H](CC(C)C)NC(=O)[C@H](CCCCN)NC(=O)CNC(=O)[C@H](CC(C)C)NC(=O)[C@H](CC(C)C)NC(=O)[C@H](CO)NC(=O)[C@H](CC(C)C)NC(=O)[C@H](CC(C)C)NC(=O)[C@H](CO)NC(=O)[C@H](CC(C)C)NC(=O)[C@H](C)NC(=O)CN)C(N)=O [DFT506, GALSLLSLLGKLL] (H-GALSLLSLLGKLL-NH2; N-terminus assumed)",active,12.5,6.2,3.1,4,0.78,–,–,–
"CC(C)C[C@H](NC(=O)[C@H](CC(C)C)NC(=O)[C@H](CCCCN)NC(=O)CNC(=O)[C@H](CC(C)C)NC(=O)[C@H](C)NC(=O)[C@H](CO)NC(=O)[C@H](CC(C)C)NC(=O)[C@H](CC(C)C)NC(=O)[C@H](CO)NC(=O)[C@H](CC(C)C)NC(=O)[C@H](CC(C)C)NC(=O)CN)C(N)=O [DFT510, GLLSLLSALGKLL] (H-GLLSLLSALGKLL-NH2; N-terminus assumed)",–,>25,>25,>25,19,1.56,–,–,–
"CC(C)C[C@H](NC(=O)[C@H](CC(C)C)NC(=O)[C@H](CCCCN)NC(=O)CNC(=O)[C@H](CC(C)C)NC(=O)[C@H](C)NC(=O)[C@H](CCCCN)NC(=O)[C@H](CC(C)C)NC(=O)[C@H](C)NC(=O)[C@H](CO)NC(=O)[C@H](CC(C)C)NC(=O)[C@H](C)NC(=O)CN)C(N)=O [DFT528, GALSALKALGKLL] (H-GALSALKALGKLL-NH2; N-terminus assumed)",–,>25,>25,25,>50,25,–,12.5 to 25,–
"CC(C)C[C@H](NC(=O)[C@H](CC(C)C)NC(=O)[C@H](CCCCN)NC(=O)CNC(=O)[C@H](CC(C)C)NC(=O)[C@H](CO)NC(=O)[C@H](CO)NC(=O)[C@H](CC(C)C)NC(=O)[C@H](CC(C)C)NC(=O)CN)C(N)=O [DFT525, GLLS--SL-GKLL] (H-GLLSSLGKLL-NH2; N-terminus and C-terminus assumed)",–,>25,–,>25,>300,>25,–,–,>25
"CC(C)C[C@H](NC(=O)[C@H](C)NC(=O)[C@H](CCCCN)NC(=O)CNC(=O)[C@H](CC(C)C)NC(=O)[C@H](C)NC(=O)[C@H](CCCCN)NC(=O)[C@H](CC(C)C)NC(=O)[C@H](C)NC(=O)[C@H](CO)NC(=O)[C@H](CC(C)C)NC(=O)[C@H](CC(C)C)NC(=O)CN)C(N)=O [DFT529, GLLSALKALGKAL] (H-GLLSALKALGKAL-NH2; N-terminus assumed)",–,>25,>25,25,>50,75,–,12.5 to 25,–
"CC(C)C[C@H](NC(=O)[C@H](CC(C)C)NC(=O)[C@H](CCCCN)NC(=O)CNC(=O)[C@H](CC(C)C)NC(=O)[C@H](C)NC(=O)[C@H](CCCCN)NC(=O)[C@H](CC(C)C)NC(=O)[C@H](C)NC(=O)[C@H](CO)NC(=O)[C@H](CC(C)C)NC(=O)[C@H](CC(C)C)NC(=O)CN)C(N)=O [DFT514, GLLSALKALGKLL] (H-GLLSALKALGKLL-NH2; N-terminus assumed)",–,>25,3.1,3.1,36,1.56,–,–,–
"CC(C)C[C@H](NC(=O)[C@H](C)NC(=O)[C@H](CCCCN)NC(=O)CNC(=O)[C@H](CC(C)C)NC(=O)[C@H](CC(C)C)NC(=O)[C@H](CO)NC(=O)[C@H](CC(C)C)NC(=O)[C@H](CC(C)C)NC(=O)[C@H](CO)NC(=O)[C@H](CC(C)C)NC(=O)[C@H](CC(C)C)NC(=O)CN)C(N)=O [DFT512, GLLSLLSLLGKAL] (H-GLLSLLSLLGKAL-NH2; N-terminus assumed)",–,>25,3.1,3.1,4,0.78,–,–,–
